Target: T1, Recombinant human calpain I (Homo sapiens, UniProt P07384)
T1 construct: made in house
T1 sequence (P07384 1-714): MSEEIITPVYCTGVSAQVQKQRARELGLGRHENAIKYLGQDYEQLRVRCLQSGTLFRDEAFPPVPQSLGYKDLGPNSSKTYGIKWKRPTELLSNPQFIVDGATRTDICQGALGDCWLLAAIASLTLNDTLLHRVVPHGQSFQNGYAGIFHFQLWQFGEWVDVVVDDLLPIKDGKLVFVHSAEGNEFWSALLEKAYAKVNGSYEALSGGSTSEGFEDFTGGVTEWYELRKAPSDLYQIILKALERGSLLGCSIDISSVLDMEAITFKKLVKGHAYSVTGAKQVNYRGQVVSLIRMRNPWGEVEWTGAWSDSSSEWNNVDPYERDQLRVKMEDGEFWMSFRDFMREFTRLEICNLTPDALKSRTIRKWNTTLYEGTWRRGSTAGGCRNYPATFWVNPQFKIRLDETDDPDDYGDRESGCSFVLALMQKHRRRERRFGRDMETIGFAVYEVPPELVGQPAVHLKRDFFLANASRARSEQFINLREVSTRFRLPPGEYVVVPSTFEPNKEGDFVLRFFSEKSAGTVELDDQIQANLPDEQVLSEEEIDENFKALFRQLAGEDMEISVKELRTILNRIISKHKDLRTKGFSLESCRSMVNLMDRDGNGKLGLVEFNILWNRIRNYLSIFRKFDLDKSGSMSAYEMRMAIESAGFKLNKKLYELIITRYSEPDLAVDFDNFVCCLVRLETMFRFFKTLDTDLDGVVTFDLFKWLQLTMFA
T1 sequence (P04632 1-268 partner): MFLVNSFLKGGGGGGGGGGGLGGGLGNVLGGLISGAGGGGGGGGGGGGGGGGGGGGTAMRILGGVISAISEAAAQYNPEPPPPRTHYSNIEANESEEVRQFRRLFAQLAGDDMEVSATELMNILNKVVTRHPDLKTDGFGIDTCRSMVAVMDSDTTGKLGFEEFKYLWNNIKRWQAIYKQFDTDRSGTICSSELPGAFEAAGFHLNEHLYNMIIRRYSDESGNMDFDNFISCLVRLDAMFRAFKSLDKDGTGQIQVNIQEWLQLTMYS
Experiment: Inhibition of cysteine protease activity: calpain I, Succ-Leu-Tyr-MNA substrate hydrolysis
Assay type: biochemical
Conditions: Table 2, linear α-ketoamides
Protocol: To evaluate inhibitory activity, stock solutions (40 times concentrated) of each compound to be tested were prepared in 100% anhydrous DMSO and 5 μl of each inhibitor preparation were aliquoted into each of three wells of a 96-well plate. Recombinant human calpain I, prepared by the method of Meyer et al. (Biochem. J. 1996, 314: 511–519; incorporated herein by reference in its entirety), was diluted into assay buffer (i.e., 50 mM Tris, 50 mM NaCl, 1 mM EDTA, 1 mM EGTA, and 5 mM β-mercaptoethanol, pH 7.5, including 0.2 mM Succ-Leu-Tyr-MNA), and 175 μl was aliquoted into the same wells containing the independent inhibitor stocks as well as to positive control wells containing 5 μl DMSO, but no compound. To start the reaction, 20 μl of 50 mM CaCl2 in assay buffer was added to all wells of the plate, excepting three, which were used as background signal baseline controls. Substrate hydrolysis was monitored every 5 minutes for a total of 30 minutes. Substrate hydrolysis in the absence of inhibitor was linear for up to 15 minutes.
Inhibition of calpain I activity was calculated as the percent decrease in the rate of substrate hydrolysis in the presence of inhibitor relative to the rate in its absence. Comparison between the inhibited and control rates was made within the linear range for substrate hydrolysis. The IC50s of inhibitors (concentration yielding 50% inhibition) were determined from the percent decrease in rates of substrate hydrolysis in the presence of five to seven different concentrations of the test compound. The results were plotted as percent inhibition versus log inhibitor concentration, and the IC50 was calculated by fitting the data to the four-parameter logistic equation shown below using the program GraphPad Prism (GraphPad Software, Inc., San Diego, Calif.). y=d+[(a−d)/(1+(x/c)^b)]
The parameters a, b, c, and d are defined as follows: a is % inhibition in the absence of inhibitor, b is the slope, c is the IC50, and d is the % inhibition at an infinite concentration of inhibitor.

In order of rising IC50:
1. CC(C)C[C@H](NC(=O)OCc1ccccc1)C(=O)N[C@@H](Cc1ccccc1)C(=O)C(=O)NCCNS(=O)(=O)c1ccccc1 [Compound 17]  11 nM
2. CSc1nccc(-c2ccc(S(=O)(=O)NCCNC(=O)C(=O)[C@H](Cc3ccccc3)NC(=O)[C@@H](COCc3ccccc3)NS(C)(=O)=O)s2)n1 [Compound 33]  17 nM
3. CS(=O)(=O)N[C@H](COCc1ccccc1)C(=O)N[C@@H](Cc1ccccc1)C(=O)C(=O)NCCNS(=O)(=O)c1ccc(S(=O)(=O)c2ccccc2)s1 [Compound 37]  18 nM
4. CN(C)Cc1ccc(S(=O)(=O)NCCNC(=O)C(=O)[C@H](Cc2ccccc2)NC(=O)[C@@H](COCc2ccccc2)NS(C)(=O)=O)cc1 [Compound 45]  64 nM
5. CS(=O)(=O)N[C@H](COCc1ccccc1)C(=O)N[C@@H](Cc1ccccc1)C(=O)C(=O)NCCNS(=O)(=O)CCc1ccncc1 [Compound 46]  144 nM

Same assay, conditions: Table 2; 10 μM compound; values in brackets marked **

In the case of `O=C(NCCNS(=O)(=O)c1ccccc1)C(=O)[C@H](Cc1ccccc1)NC(=O)[C@@H]1CCCN1S(=O)(=O)c1ccccc1` [Compound 13], the “Percent inhibition @ 10 μM (Calpain)” value is reported as “(78%)”.
With `O=C(NCCNS(=O)(=O)c1ccccc1)C(=O)[C@H](Cc1ccccc1)NC(=O)[C@H](Cc1ccccc1)NS(=O)(=O)c1ccccc1` [Compound 30] the “Percent inhibition @ 10 μM (Calpain)” value was “(97%)”.

Same assay, conditions: Table 3, branched-chain α-ketoamides

In order of falling IC50:
1. C[C@H](CNC(=O)C(=O)[C@H](Cc1ccccc1)NC(=O)[C@@H](COCc1ccccc1)NS(C)(=O)=O)NS(=O)(=O)c1ccccc1 [Compound 48]  43 nM
2. C[C@@H](CNS(=O)(=O)c1ccccc1)NC(=O)C(=O)[C@H](Cc1ccccc1)NC(=O)[C@@H](COCc1ccccc1)NS(C)(=O)=O [Compound 49]  32 nM

Same assay, conditions: Table 3; concentration not given

With `CN(CCNC(=O)C(=O)[C@H](Cc1ccccc1)NC(=O)[C@@H](COCc1ccccc1)NS(C)(=O)=O)S(=O)(=O)c1ccccc1` [Compound 50] the “Calpain percent inhibition, value in brackets marked **” value was “(100%)”.

Same assay, conditions: Table 4, α-ketoamides

In order of rising IC50:
1. CC(=O)Nc1cccc(-c2ccc(S(=O)(=O)NCCNC(=O)C(=O)C(Cc3ccccc3)NC(=O)C(COCc3ccccc3)NS(C)(=O)=O)s2)c1 (mixture of isomers) [Compound 76]  11 nM
2. CN(C)Cc1cccc(-c2ccc(S(=O)(=O)NCCNC(=O)C(=O)[C@H](Cc3ccccc3)NC(=O)[C@@H](COCc3ccccc3)NS(C)(=O)=O)s2)c1 [Compound 54]  12 nM
3. C[C@H](OCc1ccccc1)[C@@H](NS(C)(=O)=O)C(=O)N[C@@H](Cc1ccccc1)C(=O)C(=O)NCCNS(=O)(=O)c1ccc(-c2ccccn2)s1 [Compound 66]  12 nM
4. CS(=O)(=O)N[C@H](COCc1ccccc1)C(=O)N[C@@H](Cc1ccccc1)C(=O)C(=O)NCCNC(=NC#N)Oc1ccccc1 [Compound 53]  15 nM
5. CS(=O)(=O)NC(COCc1ccccc1)C(=O)NC(Cc1ccccc1)C(=O)C(=O)NCCNS(=O)(=O)c1ccc(-c2cccc([N+](=O)[O-])c2)s1 (mixture of isomers) [Compound 74]  15 nM
6. CS(=O)(=O)N[C@H](COCc1ccccc1)C(=O)N[C@@H](Cc1ccccc1)C(=O)C(=O)NCCNS(=O)(=O)c1ccc(-c2cccc(CN3CCC(=O)CC3)c2)s1 [Compound 115]  16 nM
7. CS(=O)(=O)N[C@H](COCc1ccccc1)C(=O)N[C@@H](Cc1ccccc1)C(=O)C(=O)NCCNS(=O)(=O)c1ccc(-c2ccc(C=O)cc2)s1 [Compound 90]  17 nM
8. CS(=O)(=O)N[C@H](COCc1ccccc1)C(=O)N[C@@H](Cc1ccccc1)C(=O)C(=O)NCCNS(=O)(=O)c1ccc(CN2CCOCC2)cc1 [Compound 57]  18 nM
9. COCC1CCCN1Cc1ccc(S(=O)(=O)NCCNC(=O)C(=O)[C@H](Cc2ccccc2)NC(=O)[C@@H](COCc2ccccc2)NS(C)(=O)=O)cc1 (stereo partly shown) [Compound 91]  19 nM
10. CS(=O)(=O)N[C@H](COCc1ccccc1)C(=O)N[C@@H](Cc1ccccc1)C(=O)C(=O)NCCCS(=O)(=O)Nc1ccc(C(F)(F)F)cc1 [Compound 63]  23 nM
11. CS(=O)(=O)N[C@H](COCc1ccccc1)C(=O)N[C@@H](Cc1ccccc1)C(=O)C(=O)NCCNS(=O)(=O)c1ccc(-c2cccc(CN3CCCC3)c2)s1 [Compound 103]  24 nM
12. CS(=O)(=O)N[C@H](COCc1ccccc1)C(=O)N[C@@H](Cc1ccccc1)C(=O)C(=O)NCCNS(=O)(=O)c1ccc(-c2ccccc2C=O)s1 [Compound 98]  24 nM
13. CC(C)C[C@H](NC(=O)OCc1ccccc1)C(=O)N[C@@H](CC(C)C)C(=O)N[C@@H](Cc1ccccc1)C(=O)C(=O)NCCNS(=O)(=O)c1ccc(-c2ccccn2)s1 [Compound 88]  33 nM
14. CN(Cc1cccc(-c2ccc(S(=O)(=O)NCCNC(=O)C(=O)[C@H](Cc3ccccc3)NC(=O)[C@@H](COCc3ccccc3)NS(C)(=O)=O)s2)c1)C1CCCCC1 [Compound 102]  36 nM
15. CC(C)(C)OC(=O)NC1CCCC(NC(=O)C(=O)[C@H](Cc2ccccc2)NC(=O)[C@@H](COCc2ccccc2)NS(C)(=O)=O)C1 (stereo partly shown) [Compound 55]  42 nM
16. CS(=O)(=O)N[C@H](COCc1ccccc1)C(=O)N[C@@H](Cc1ccccc1)C(=O)C(=O)NCCS(=O)(=O)Nc1ccccc1 [Compound 60]  47 nM
17. CS(=O)(=O)NC(COCc1ccccc1)C(=O)NC(Cc1ccccc1)C(=O)C(=O)NC1CCN(S(=O)(=O)c2ccc(CN3CCOCC3)cc2)CC1 (mixture of isomers) [Compound 78]  48 nM
18. CS(=O)(=O)N[C@H](COCc1ccccc1)C(=O)N[C@@H](Cc1ccccc1)C(=O)C(=O)NCCCS(=O)(=O)N1CCOCC1 [Compound 81]  124 nM
19. CS(=O)(=O)N[C@H](COCc1ccccc1)C(=O)N[C@@H](Cc1ccccc1)C(=O)C(=O)NCCCS(=O)(=O)NN1CCOCC1 [Compound 80]  169 nM

Same assay, conditions: Table 5, achiral P2 mimetic α-ketoamides

First: CC(C)C(=O)N[C@@H](Cc1ccccc1)C(=O)C(=O)NCCNS(=O)(=O)c1ccc(-c2ccccn2)s1 [Compound 143]
Second: CC(C)CC(=O)N[C@@H](Cc1ccccc1)C(=O)C(=O)NCCNS(=O)(=O)c1ccc(-c2ccccn2)s1 [Compound 144]
The IC50 of the first is 2.5-fold higher: 1500 nM for the first, 590 nM for the second. The second is the more potent here.

First: O=C(NCCNS(=O)(=O)c1ccc(-c2ccccn2)s1)C(=O)[C@H](Cc1ccccc1)NC(=O)c1c(Cl)cccc1Cl [Compound 118]
Second: Cc1ccc(Cl)c(C(=O)N[C@@H](Cc2ccccc2)C(=O)C(=O)NCCNS(=O)(=O)c2ccc(-c3ccccn3)s2)c1Cl [Compound 119]
The IC50 of the first is 1.7-fold lower: 36 nM for the first, 61 nM for the second.

Compared with `CC(CCC(=O)N[C@@H](Cc1ccccc1)C(=O)C(=O)NCCNS(=O)(=O)c1ccc(-c2ccccn2)s1)c1ccccc1` (stereo partly shown) [Compound 148], `O=C(CCCc1ccccc1)N[C@@H](Cc1ccccc1)C(=O)C(=O)NCCNS(=O)(=O)c1ccc(-c2ccccn2)s1` [Compound 149] is 17-fold higher in IC50: 87 nM for the first, 1500 nM for the second.

Going from `O=C(NCCNS(=O)(=O)c1ccc(-c2ccccn2)s1)C(=O)[C@H](Cc1ccccc1)NC(=O)c1ccc2c(c1)OCO2` [Compound 123] to `O=C(NCCNS(=O)(=O)c1ccc(-c2ccccn2)s1)C(=O)[C@H](Cc1ccccc1)NC(=O)c1c(F)cccc1F` [Compound 120], the IC50 falls from greater than 1000 nM to 20 nM. The second is the more potent here.

Going from `CCc1cccc(CC)c1C(=O)N[C@@H](Cc1ccccc1)C(=O)C(=O)NCCNS(=O)(=O)c1ccc(-c2ccon2)s1` [Compound 137] to `O=C(NCCNS(=O)(=O)c1ccc(-c2ccon2)s1)C(=O)[C@H](Cc1ccccc1)NC(=O)c1c(F)cccc1F` [Compound 136], the IC50 falls from 145 nM to 62 nM (2.3-fold).

Work on `CC(C)CCC(=O)N[C@@H](Cc1ccccc1)C(=O)C(=O)NCCNS(=O)(=O)c1ccc(-c2ccccn2)s1` [Compound 145] yielded an IC50 of 29 nM.

From patent US7001907B2, “Peptide-containing α-ketoamide cysteine and serine protease inhibitors” (Cephaon, Inc., priority 1997, dated 2006)
